One substance from patent US20160000750A1, “COMBINATION OF EGCG OR METHYLATED EGCG AND A PDE INHIBITOR” (KYUSHU UNIVERSITY, NATIONAL UNIVERSITY CORPORATION, priority 2010, published 2016) can be followed below.

Assay [1] has as its system acute myeloid leukemia cell line, HL60. As to the kind of experiment: Apoptosis induction by Annexin V PI double staining, HL60. The assay is classed as cell-based, human. To be noted: vardenafil 5 μM, EGCG 5 μM, 96 hours. How it is done:
A propidium iodide (PI) staining solution was prepared by suspending PI (Sigma Corporation) in PBS at a concentration of 50 μg/mL and was used in investigation of the anti-cancer activity of a combination of EGCG and vardenafil by Annexin V PI double staining. The PBS used was prepared by dissolving 8.0 g of NaCl, 0.2 g of KCl, 1.15 g of Na2HPO4, and 0.2 g of KH2PO4 in 1 L of ultrapure water, followed by autoclave sterilization. The Annexin V Binding Buffer used was prepared with 10 mM HEPES, 140 mM NaCl, and 2.5 mM CaCl2 (Wako Pure Chemical Industries, Ltd.) to be pH 7.4, followed by filter sterilization.
Cell lines, U266 and HL60, adjusted to be 5×10^4 cells/mL (U266) and 1×10^4 cells/mL (HL60), respectively, in an RPMI 1640 medium supplemented with 1% FCS were seeded in a 96-well plate. […]
The plate was returned to the incubator immediately after the addition of EGCG, followed by culturing for 96 hours. […] The supernatant was removed, and the cells were suspended in an Annexin V Binding uffer, and the number of the cells was counted with a hemocytometer. […] Subsequently, 400 μL of an Annexin V Binding Buffer was added thereto from above, and the cells were counted with a flow cytometer, FACS Caliber (Becton, Dickinson and Company). After compensation, the Annexin V Alexa Fluor 488 Conjugate was measured at FL 1, and the cells deemed to be positive were determined as apoptotic cells. […]

Assay [2] deals with human multiple myeloma cell line, RPMI8226. As to the kind of experiment: Trypan blue cell viability and viable cell count, RPMI8226. It is filed as cell-based. To be noted: vardenafil 5 μM, EGCG 5 μM, 96 hours. As to the method:
Enhancement of the activity of EGCG on multiple myeloma cells by vardenafil was investigated. A human multiple myeloma cell line, RPMI8226, was seeded in a 24-well plate at 5×10^4 cells/mL, and vardenafil was added thereto at a final concentration of 5 μM. After 3 hours, EGCG was added thereto at a final concentration of 5 μM. After 96 hours, cell viability (A) and the number (B) of viable cells were measured by trypan blue staining. The value of a control group of cells not treated with EGCG and vardenafil was defined as 100%. The results are shown in FIG. 8 (n=3, Tukey's test, *: P<0.05, ***: P<0.001).

In assay [3] the test system is Toll-like receptor (TLR) 2. As to the kind of experiment: TLR2 expression in RAW 264.7 by Western blotting. It is filed as cell-based, mouse. To be noted: vardenafil 5 μM, EGCG 10 μM added after 3 hours, 24 hours, untreated = 100. How it is done:
(§1) A mouse macrophage cell line, RAW 264.7, was seeded in a 5-mL dish at 1×10^5 cells/mL and was pre-cultured in a DMEM medium supplemented with 1% FCS for 24 hours. Subsequently, vardenafil was added thereto at a concentration of 5 μM. After 3 hours, EGCG was added thereto at a concentration of 0 μM or 10 μM. After 24 hours, the cells were collected, and the expressions of Toll-like receptor (TLR) 2 and TLR 4 were measured by Western blotting.
A general note: Immunoblotting shows a protein as a band on a membrane.

In another assay the test system is TLR 4. As to the kind of experiment: TLR4 expression in RAW 264.7 by Western blotting. It is filed as cell-based, mouse. To be noted: vardenafil 5 μM, EGCG 10 μM added after 3 hours, 24 hours, untreated = 100. How it is done: as §1

Consider (−)-epigallocatechin-3-O-gallate [EGCG], for which, in assay [1] (Annexin V PI double staining), the “apoptosis-inducing activity (apoptotic cell ratio)” value is given as “apoptosis was induced”. Also, the “apoptosis-inducing activity under treatment with anti-67LR antibody” value in assay [1] (anti-67LR antibody MLuc5 20 μg/mL) was “completely cancelled”. Moreover, in assay [2], the “cell viability (cell-killing activity)” value is given as “any cytotoxicity was not observed”. Moreover, in assay [3], the “TLR2 expression level(%)” value stood at 90%. The “TLR4 expression level(%)” value in the assay with TLR 4 was 57%.
